In ChEMBL document CHEMBL5550160, “Leveraging a rationally designed veliparib-based anilide eliciting anti-leukemic effects for the design of pH-responsive polymer nanoformulation” (Eur J Med Chem, 2024):
Activity calls are given as the source filed them. The rule behind the calls is not given here.

Tests used:
[1] = biological target: T1, Polyamine deacetylase HDAC10 (Homo sapiens) (UniProt Q969S8); test: Inhibition of HDAC10 (unknown origin) assessed as residual activity at 3.33 x 10^-6M (reference value: 101.54%); conditions: dose 3.33 10^-6M
T1 sequence (whole entry): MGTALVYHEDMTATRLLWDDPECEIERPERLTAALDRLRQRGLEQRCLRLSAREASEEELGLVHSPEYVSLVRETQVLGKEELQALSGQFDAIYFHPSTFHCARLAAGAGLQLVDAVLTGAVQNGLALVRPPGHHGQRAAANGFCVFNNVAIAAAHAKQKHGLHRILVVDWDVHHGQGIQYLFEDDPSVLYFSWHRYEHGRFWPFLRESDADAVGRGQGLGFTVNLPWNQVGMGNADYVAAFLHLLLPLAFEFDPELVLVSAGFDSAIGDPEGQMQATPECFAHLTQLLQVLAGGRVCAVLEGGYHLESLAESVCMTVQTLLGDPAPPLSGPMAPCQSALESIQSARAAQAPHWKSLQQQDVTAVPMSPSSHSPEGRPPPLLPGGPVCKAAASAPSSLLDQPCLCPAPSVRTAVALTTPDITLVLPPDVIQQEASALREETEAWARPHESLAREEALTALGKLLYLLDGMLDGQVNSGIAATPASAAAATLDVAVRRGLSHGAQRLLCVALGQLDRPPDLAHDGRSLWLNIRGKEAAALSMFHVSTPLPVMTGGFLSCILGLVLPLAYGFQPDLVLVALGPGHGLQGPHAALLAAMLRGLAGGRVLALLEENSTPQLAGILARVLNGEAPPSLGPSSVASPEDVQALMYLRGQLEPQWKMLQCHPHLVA

Histone deacetylase 3 [2] = biological target: T2, Histone deacetylase 3 (Homo sapiens, UniProt O15379); test: Inhibition of HDAC3 (unknown origin) using p53 residues 379 to 382 [RHKK(Ac)] as fluorogenic substrate assessed as residual activity at 1 x 10^-5M (reference value: 103.08%); conditions: dose 1.0 10^-5M
T2 sequence (O15379 whole entry, the tested form may be a part): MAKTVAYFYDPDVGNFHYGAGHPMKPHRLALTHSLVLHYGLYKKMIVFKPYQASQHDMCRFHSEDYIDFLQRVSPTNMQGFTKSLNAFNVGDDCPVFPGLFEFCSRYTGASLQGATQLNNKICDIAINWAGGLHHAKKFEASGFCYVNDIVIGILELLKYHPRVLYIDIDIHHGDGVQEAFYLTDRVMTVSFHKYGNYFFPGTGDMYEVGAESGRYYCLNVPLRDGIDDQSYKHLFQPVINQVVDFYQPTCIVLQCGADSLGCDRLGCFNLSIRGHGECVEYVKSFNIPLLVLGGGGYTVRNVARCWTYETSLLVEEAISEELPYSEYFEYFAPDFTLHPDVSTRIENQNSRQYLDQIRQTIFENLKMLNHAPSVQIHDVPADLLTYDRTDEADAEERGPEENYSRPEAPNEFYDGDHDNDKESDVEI

HL-60 [3] = test: Downregulation of PARP-1 protein expression in human HL-60 cells by Western blot analysis; format: functional, cell-based
HL-60 [4] = test: Induction of apoptosis in human HL-60 cells assessed as chromatin condensation at 0.5 to 1 times IC50 by DAPI staining based microscopic analysis; format: functional, cell-based
Histone deacetylase 3 [5] = biological target: T2, Histone deacetylase 3; test: Inhibition of HDAC3 (unknown origin) using p53 residues 379 to 382 [RHKK(Ac)] as fluorogenic substrate assessed as residual activity at 3.33 x 10^-6M (reference value: 103.08%); conditions: dose 3.33 10^-6M
HL-60 [6] = test: Induction of cell cycle arrest in G0/G1 phase in human HL-60 cells assessed as downregulation of cyclin D1 protein expression at 0.5 to 1 times IC50 by Western blot analysis; format: functional, cell-based
[7] = biological target: T3, Histone deacetylase 8 (Homo sapiens) (UniProt Q9BY41); test: Inhibition of HDAC8 (unknown origin) assessed as residual activity at 1.52 x 10^-9M (reference value: 100%); conditions: dose 1.52 10^-9M
T3 sequence (whole entry): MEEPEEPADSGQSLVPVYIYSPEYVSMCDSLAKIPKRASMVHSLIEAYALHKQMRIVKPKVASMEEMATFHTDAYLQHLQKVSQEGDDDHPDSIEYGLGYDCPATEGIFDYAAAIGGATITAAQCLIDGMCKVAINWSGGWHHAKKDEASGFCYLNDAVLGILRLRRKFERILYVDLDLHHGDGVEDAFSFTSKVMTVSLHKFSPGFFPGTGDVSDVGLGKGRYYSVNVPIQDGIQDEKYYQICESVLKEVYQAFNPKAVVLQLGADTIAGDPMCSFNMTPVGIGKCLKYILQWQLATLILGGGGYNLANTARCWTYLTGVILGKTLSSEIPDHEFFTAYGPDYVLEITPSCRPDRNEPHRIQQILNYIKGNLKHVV

PC-3 = test: cells; format: functional, cell-based; conditions: Homo sapiens
Description: Antiproliferative activity against human PC-3 cells assessed as inhibition of cell growth by MTT assay

[8] = biological target: T3, Histone deacetylase 8 (Homo sapiens); test: Inhibition of HDAC8 (unknown origin) assessed as residual activity at 4.12 x 10^-8M (reference value: 100%); conditions: dose 4.12 10^-8M
[9] = biological target: T1, Polyamine deacetylase HDAC10 (Homo sapiens); test: Inhibition of HDAC10 (unknown origin) assessed as residual activity at 4.57 x 10^-9M (reference value: 101.54%); conditions: dose 4.57 10^-9M
HL-60 [10] = test: Induction of apoptosis in human HL-60 cells assessed as nuclear fragmentation at 0.5 to 1 times IC50 by DAPI staining based microscopic analysis; format: functional, cell-based
Histone deacetylase 3 [11] = biological target: T2, Histone deacetylase 3; test: Inhibition of HDAC3 (unknown origin) using p53 residues 379 to 382 [RHKK(Ac)] as fluorogenic substrate assessed as residual activity at 1.37 x 10^-8M (reference value: 103.08%); conditions: dose 1.37 10^-8M
HL-60 [12] = test: cells; conditions: Homo sapiens
Description: Antiproliferative activity against human HL-60 cells assessed as inhibition of cell growth by MTT assay

Histone deacetylase 2 = Histone deacetylase 2 (Homo sapiens, UniProt Q92769); test: Inhibition of HDAC2 (unknown origin) assessed as residual activity at 1.23 x 10^-7M (reference value: 99.81%); conditions: dose 1.23 10^-7M
Chain of Histone deacetylase 2 (Q92769 whole entry): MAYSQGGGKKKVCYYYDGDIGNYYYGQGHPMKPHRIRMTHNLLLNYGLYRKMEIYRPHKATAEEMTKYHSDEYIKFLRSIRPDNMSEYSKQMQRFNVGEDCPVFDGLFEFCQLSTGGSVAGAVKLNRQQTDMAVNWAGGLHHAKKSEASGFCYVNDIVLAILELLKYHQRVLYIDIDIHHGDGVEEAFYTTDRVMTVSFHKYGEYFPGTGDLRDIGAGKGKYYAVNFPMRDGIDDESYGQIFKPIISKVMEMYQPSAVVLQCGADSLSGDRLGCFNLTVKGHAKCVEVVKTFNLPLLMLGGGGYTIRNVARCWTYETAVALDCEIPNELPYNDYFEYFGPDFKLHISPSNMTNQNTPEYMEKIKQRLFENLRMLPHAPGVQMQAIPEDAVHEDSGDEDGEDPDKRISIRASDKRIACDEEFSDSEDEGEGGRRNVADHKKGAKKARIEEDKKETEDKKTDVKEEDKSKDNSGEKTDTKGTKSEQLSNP

[13] = biological target: Histone deacetylase 5 (Homo sapiens) (UniProt Q9UQL6); test: Inhibition of HDAC5 (unknown origin) assessed as residual activity at 1.52 x 10^-9M (reference value: 100%); conditions: dose 1.52 10^-9M
Chain of Histone deacetylase 5 (Homo sapiens) (Q9UQL6 whole entry, the tested form may be a part): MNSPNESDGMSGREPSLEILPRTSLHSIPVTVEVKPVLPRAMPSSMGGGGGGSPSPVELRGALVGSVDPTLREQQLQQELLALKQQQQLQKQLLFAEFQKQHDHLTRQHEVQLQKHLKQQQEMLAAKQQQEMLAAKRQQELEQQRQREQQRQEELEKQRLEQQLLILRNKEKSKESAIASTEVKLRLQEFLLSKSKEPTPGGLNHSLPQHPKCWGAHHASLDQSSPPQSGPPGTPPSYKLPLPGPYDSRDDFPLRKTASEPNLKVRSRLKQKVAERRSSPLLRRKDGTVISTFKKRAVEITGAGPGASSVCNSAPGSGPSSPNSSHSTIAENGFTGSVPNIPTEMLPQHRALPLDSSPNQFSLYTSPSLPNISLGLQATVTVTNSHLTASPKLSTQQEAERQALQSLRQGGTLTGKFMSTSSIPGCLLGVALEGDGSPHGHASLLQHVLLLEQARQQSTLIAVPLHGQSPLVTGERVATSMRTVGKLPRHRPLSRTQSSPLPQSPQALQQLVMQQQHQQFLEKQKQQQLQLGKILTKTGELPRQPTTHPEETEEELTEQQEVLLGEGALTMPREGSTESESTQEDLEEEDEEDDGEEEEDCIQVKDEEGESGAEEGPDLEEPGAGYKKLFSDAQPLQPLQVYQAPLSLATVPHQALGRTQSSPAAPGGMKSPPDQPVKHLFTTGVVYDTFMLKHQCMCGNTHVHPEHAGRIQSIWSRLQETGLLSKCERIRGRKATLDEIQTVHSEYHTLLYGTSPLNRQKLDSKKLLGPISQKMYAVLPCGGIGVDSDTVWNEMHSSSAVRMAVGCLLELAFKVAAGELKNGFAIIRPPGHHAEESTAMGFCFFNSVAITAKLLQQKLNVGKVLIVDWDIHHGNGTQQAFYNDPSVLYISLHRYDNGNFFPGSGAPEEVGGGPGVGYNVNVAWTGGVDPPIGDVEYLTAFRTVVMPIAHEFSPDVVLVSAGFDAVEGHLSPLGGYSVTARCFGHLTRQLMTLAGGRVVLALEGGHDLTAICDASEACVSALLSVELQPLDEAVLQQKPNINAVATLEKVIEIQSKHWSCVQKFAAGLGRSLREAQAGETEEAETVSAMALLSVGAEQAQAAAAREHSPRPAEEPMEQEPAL

Histone deacetylase 1 [14] = biological target: T4, Histone deacetylase 1 (Homo sapiens, UniProt Q13547); test: Inhibition of HDAC1 (unknown origin) using p53 residues 379 to 382 [RHKK(Ac)] as fluorogenic substrate assessed as residual activity at 1.52 x 10^-9M (reference value: 98.06%); conditions: dose 1.52 10^-9M
T4 sequence (Q13547 whole entry, the tested form may be a part): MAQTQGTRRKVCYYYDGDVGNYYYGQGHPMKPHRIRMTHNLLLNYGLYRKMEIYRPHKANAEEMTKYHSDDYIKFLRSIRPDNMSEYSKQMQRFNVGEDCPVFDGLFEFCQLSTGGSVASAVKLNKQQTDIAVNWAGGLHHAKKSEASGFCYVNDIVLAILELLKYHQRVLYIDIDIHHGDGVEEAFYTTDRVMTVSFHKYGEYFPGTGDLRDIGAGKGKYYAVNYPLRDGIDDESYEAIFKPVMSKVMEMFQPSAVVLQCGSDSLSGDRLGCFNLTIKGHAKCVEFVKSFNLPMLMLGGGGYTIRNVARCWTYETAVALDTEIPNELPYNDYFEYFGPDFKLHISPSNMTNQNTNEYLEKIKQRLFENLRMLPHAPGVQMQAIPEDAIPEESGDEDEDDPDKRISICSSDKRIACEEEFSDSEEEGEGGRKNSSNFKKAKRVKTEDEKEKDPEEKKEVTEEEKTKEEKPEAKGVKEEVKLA

[15] = biological target: Histone deacetylase 4 (Homo sapiens) (UniProt P56524); test: Inhibition of HDAC4 (unknown origin) assessed as residual activity at 4.57 x 10^-9M (reference value: 98.90%); conditions: dose 4.57 10^-9M
Chain of Histone deacetylase 4 (Homo sapiens) (P56524 whole entry, the tested form may be a part): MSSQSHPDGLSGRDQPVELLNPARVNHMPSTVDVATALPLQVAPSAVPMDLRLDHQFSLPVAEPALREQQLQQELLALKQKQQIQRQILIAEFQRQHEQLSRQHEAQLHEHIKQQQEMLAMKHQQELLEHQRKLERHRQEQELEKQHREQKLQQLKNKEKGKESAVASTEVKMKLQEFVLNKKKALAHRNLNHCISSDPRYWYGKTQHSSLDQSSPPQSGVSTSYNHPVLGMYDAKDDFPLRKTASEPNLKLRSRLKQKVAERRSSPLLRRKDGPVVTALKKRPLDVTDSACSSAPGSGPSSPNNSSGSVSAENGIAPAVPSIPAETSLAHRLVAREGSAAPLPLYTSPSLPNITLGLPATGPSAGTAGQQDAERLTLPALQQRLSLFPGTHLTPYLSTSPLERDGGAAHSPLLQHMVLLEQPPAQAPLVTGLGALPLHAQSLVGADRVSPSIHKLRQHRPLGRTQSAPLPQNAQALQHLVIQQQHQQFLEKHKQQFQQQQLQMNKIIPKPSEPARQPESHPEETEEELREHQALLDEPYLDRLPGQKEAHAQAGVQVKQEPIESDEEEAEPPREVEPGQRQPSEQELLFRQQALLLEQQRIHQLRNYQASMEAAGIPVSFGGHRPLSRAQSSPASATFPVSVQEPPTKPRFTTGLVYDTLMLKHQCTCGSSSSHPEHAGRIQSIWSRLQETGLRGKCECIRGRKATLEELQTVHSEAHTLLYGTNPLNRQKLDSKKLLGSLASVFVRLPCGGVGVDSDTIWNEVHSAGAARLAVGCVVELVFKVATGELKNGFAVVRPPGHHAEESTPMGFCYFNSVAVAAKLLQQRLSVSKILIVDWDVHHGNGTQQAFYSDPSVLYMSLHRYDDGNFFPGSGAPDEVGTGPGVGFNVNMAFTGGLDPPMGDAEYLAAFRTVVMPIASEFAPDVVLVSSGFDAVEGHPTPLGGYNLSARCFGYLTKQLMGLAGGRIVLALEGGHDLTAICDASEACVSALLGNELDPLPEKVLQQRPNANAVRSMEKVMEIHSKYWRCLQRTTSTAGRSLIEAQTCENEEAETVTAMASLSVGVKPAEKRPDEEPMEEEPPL

[16] = biological target: Histone deacetylase 5 (Homo sapiens) (UniProt Q9UQL6); test: Inhibition of HDAC5 (unknown origin) assessed as residual activity at 3.33 x 10^-6M (reference value: 100%); conditions: dose 3.33 10^-6M
[17] = biological target: Histone deacetylase 4 (Homo sapiens) (UniProt P56524); test: Inhibition of HDAC4 (unknown origin) assessed as residual activity at 5.08 x 10^-10M (reference value: 98.90%); conditions: dose 5.08 10^-10M
Histone deacetylase 1 [18] = biological target: T4, Histone deacetylase 1; test: Inhibition of HDAC1 (unknown origin) using p53 residues 379 to 382 [RHKK(Ac)] as fluorogenic substrate assessed as residual activity at 4.57 x 10^-9M (reference value: 98.06%); conditions: dose 4.57 10^-9M
K562 = test: cells; conditions: Homo sapiens
Description: Antiproliferative activity against human K562 cells assessed as inhibition of cell growth by MTT assay

[19] = biological target: Histone deacetylase 4 (Homo sapiens) (UniProt P56524); test: Inhibition of HDAC4 (unknown origin) assessed as residual activity at 1 x 10^-5M (reference value: 98.90%); conditions: dose 1.0 10^-5M
HL-60 [20] = test: Induction of cell cycle arrest in G0/G1 phase in human HL-60 cells assessed as downregulation of p-AKT protein expression at 0.5 to 1 times IC50 by Western blot analysis; format: functional, cell-based
FaDu = test: cells; format: functional, cell-based; conditions: Homo sapiens
Description: Antiproliferative activity against human FaDu cells assessed as inhibition of cell growth by MTT assay

[21] = biological target: T1, Polyamine deacetylase HDAC10 (Homo sapiens); test: Inhibition of HDAC10 (unknown origin) assessed as residual activity at 1 x 10^-5M (reference value: 101.54%); conditions: dose 1.0 10^-5M

NC(=O)c1cccc2[nH]c(-c3ccc(NCc4ccc(C(=O)Nc5ccccc5N)cc4)cc3)nc12
Activity [1]: 101% | Activity (Histone deacetylase 3 [2]): 20.7% | Activity (HL-60 [3]): Active | Activity (HL-60 [4]): inactive | Activity (Histone deacetylase 3 [5]): 12.8% | Activity (HL-60 [6]): Active | Activity [7]: 103% | IC50 (PC-3): 4.01 µM | Activity [8]: 107% | Activity [9]: 98.8% | Activity (HL-60 [10]): inactive | Activity (Histone deacetylase 3 [11]): 110% | IC50 (HL-60 [12]): 0.69 µM | Activity (Histone deacetylase 2): 56.5% | Activity [13]: 80.1% | Activity (Histone deacetylase 1 [14]): 95.5% | Activity [15]: 95.9% | Activity [16]: 85.7% | Activity [17]: 96.7% | Activity (Histone deacetylase 1 [18]): 88.7% | IC50 (K562): 1.21 µM | Activity [19]: 127% | Activity (HL-60 [20]): Active | IC50 (FaDu): > 10 µM | Activity [21]: 72.2%
